Assay results published in ChEMBL document CHEMBL3045406, “Enantioselective Relieving Activity of α-Methylbenzylphenylureas toward Bensulfuron-methyl Injury to Rice (Oryza sativa)” (Biosci Biotechnol Biochem, 1999).

What was measured:
Oryza sativa [1] = assay: Relieving activity against bensulfuron-methyl induced injury to Oryza sativa (rice) assessed as growth rate at 1 uM (Rbv = 46 to 53%); assay type: functional
Oryza sativa [2] = assay: Relieving activity against bensulfuron-methyl induced injury to Oryza sativa (rice) assessed as growth rate at 10 uM (Rbv = 46 to 53%); assay type: functional
Oryza sativa [3] = assay: Effect on Oryza sativa (rice) assessed as growth rate at 1 uM relative to control; assay type: organism-based; settings: in vivo
Oryza sativa [4] = assay: Safener indices, ratio of compound effect of Oryza sativa (rice) growth rate to relieving activity against bensulfuron-methyl induced injury to Oryza sativa growth rate at 1 uM
Oryza sativa [5] = assay: Effect on Oryza sativa (rice) assessed as growth rate at 10 uM relative to control; assay type: organism-based; settings: in vivo
[6] = Hydrophobicity, log K of the compound; assay type: physicochemical; settings: octanol/water
Oryza sativa [7] = assay: Safener indices, ratio of compound effect of Oryza sativa (rice) growth rate to relieving activity against bensulfuron-methyl induced injury to Oryza sativa growth rate at 0.1 uM
Oryza sativa [8] = assay: Effect on Oryza sativa (rice) assessed as growth rate at 0.1 uM relative to control; assay type: organism-based; settings: in vivo
Oryza sativa [9] = assay: Safener indices, ratio of compound effect of Oryza sativa (rice) growth rate to relieving activity against bensulfuron-methyl induced injury to Oryza sativa growth rate at 10 uM
Oryza sativa [10] = assay: Relieving activity against bensulfuron-methyl induced injury to Oryza sativa (rice) assessed as growth rate at 0.1 uM (Rbv = 46 to 53%); assay type: functional

Activity (Oryza sativa [3]) [%]	Activity (Oryza sativa [5]) [%]	log K [6]	Activity (Oryza sativa [8]) [%]	SMILES	Activity (Oryza sativa [1]) [%]	Activity (Oryza sativa [2]) [%]	Ratio (Oryza sativa [4])	Ratio (Oryza sativa [7])	Ratio (Oryza sativa [9])	Activity (Oryza sativa [10]) [%]
92	65	0.367	98	C[C@H](NC(=O)Nc1ccccc1F)c1ccccc1	81	78	65	47	68	73
104	106	0.486	99	C[C@H](NC(=O)Nc1ccccc1Cl)c1ccccc1	91	98	80	50	95	75
99	103	0.47	103	C[C@H](NC(=O)Nc1cccc(Cl)c1)c1ccccc1	79	92	57	31	82	68
95	87	0.439	96	C[C@@H](NC(=O)Nc1ccc(Cl)cc1)c1ccccc1	80	84	61	1	71	50
100	94	0.504	99	C[C@@H](NC(=O)Nc1ccccc1Br)c1ccccc1	60	79	20	6	61	53
95	77	0.367	97	C[C@@H](NC(=O)Nc1ccccc1F)c1ccccc1	64	76	32	3	62	47
95	84	0.363	99	C[C@@H](NC(=O)Nc1cccc(F)c1)c1ccccc1	57	67	22	-4	44	47
94	88	0.363	97	C[C@H](NC(=O)Nc1cccc(F)c1)c1ccccc1	74	79	51	21	62	59
96	92	0.307	98	C[C@@H](NC(=O)Nc1ccc(F)cc1)c1ccccc1	55	73	16	-3	52	47
97	85	0.307	96	C[C@H](NC(=O)Nc1ccc(F)cc1)c1ccccc1	72	86	47	7	74	51
103	93	0.486	101	C[C@@H](NC(=O)Nc1ccccc1Cl)c1ccccc1	63	83	21	3	67	53
105	96	0.343	100	COc1ccccc1NC(=O)N[C@H](C)c1ccccc1	55	72	-4	-1	42	54
99	95	0.343	98	COc1ccccc1NC(=O)N[C@@H](C)c1ccccc1	68	74	28	9	46	55
95	89	0.432	96	CC(=O)c1ccccc1NC(=O)N[C@H](C)c1ccccc1	51	71	10	1	49	46
97	96	0.432	100	CC(=O)c1ccccc1NC(=O)N[C@@H](C)c1ccccc1	65	73	35	9	50	53

Further lines, the compound ahead of its results:

SMILES	Activity (Oryza sativa [3]) [%]	Activity (Oryza sativa [5]) [%]	log K [6]	Activity (Oryza sativa [8]) [%]	Activity (Oryza sativa [1]) [%]	Activity (Oryza sativa [2]) [%]	Ratio (Oryza sativa [4])	Ratio (Oryza sativa [7])	Ratio (Oryza sativa [9])	Activity (Oryza sativa [10]) [%]
C[C@H](NC(=O)Nc1ccc(Cl)cc1)c1ccccc1	101	101	0.439	103	83	88	64	21	74	63
COc1ccc(NC(=O)N[C@@H](C)c2ccccc2)cc1	99	95	0.211	104	81	91	57	6	81	59
COc1cccc(NC(=O)N[C@@H](C)c2ccccc2)c1	99	99	0.277	101	86	97	70	22	94	65
C[C@@H](NC(=O)Nc1cccc(Cl)c1)c1ccccc1	91	83	0.47	97	57	61	19	-2	32	50
COc1cccc(NC(=O)N[C@H](C)c2ccccc2)c1	92	70	0.277	104	63	73	27	-5	57	54
COc1ccc(NC(=O)N[C@H](C)c2ccccc2)cc1	101	93	0.211	109	58	78	7	-11	56	53
CC(=O)c1cccc(NC(=O)N[C@H](C)c2ccccc2)c1	88	73	0.245	98	57	62	25	5	41	50
CC(=O)c1cccc(NC(=O)N[C@@H](C)c2ccccc2)c1	95	94	0.245	96	83	89	38	35	80	65
CC(=O)c1ccc(NC(=O)N[C@H](C)c2ccccc2)cc1	93	84	0.227	96	59	79	27	4	65	49
CC(=O)c1ccc(NC(=O)N[C@@H](C)c2ccccc2)cc1	99	96	0.227	99	81	86	63	24	74	60
CCOC(=O)c1cccc(NC(=O)N[C@@H](C)c2ccccc2)c1	99	96	0.419	100	85	95	70	44	89	72
CCOC(=O)c1ccc(NC(=O)N[C@H](C)c2ccccc2)cc1	100	92	0.415	101	78	89	56	11	79	56
CCOC(=O)c1ccc(NC(=O)N[C@@H](C)c2ccccc2)cc1	97	92	0.415	99	87	92	76	53	86	76
